Values of other authors in patent publication US10765646B2, “Methods of treating developmental encephalopathies” (Ovid Therapeutics Inc., priority 2017, dated 2020).

How the values were obtained:
[1] = 5 mg (±)-ketamine i.v. infusion (30 min), single dose, fasting, healthy subjects, serum
[2] = estimated
[3] = relative to ketamine
NMDA receptor = details: noncompetitive NMDA receptor antagonist

For `CNC1(c2ccccc2Cl)CCCCC1=O` (racemic) [ketamine, (R,S)-2-(2-chlorophenyl)-2-(methylamino)cyclohexanone], the “AUC0-∞ of (±)-ketamine” value [1] is listed as 59.9 ± 13.2 ng·h/mL, the “Cmax of (±)-ketamine” value [1] is listed as 33.7 ± 9.74 ng/mL and the “T1/2 (apparent terminal half-life) of (±)-ketamine” value [1] is listed as 6.99 ± 5.22 h. For the same molecule, the elimination half-life [2] was 2 to 3 h.

In the case of `NC1(c2ccccc2Cl)CCCCC1=O` (racemic) [norketamine, (R,S)-2-(2-chlorophenyl)-2-(amino)cyclohexanone], the “times less potent as an anesthetic in comparison (with ketamine)” value [3] is listed as 3-5 times and the elimination half-life [2] is listed as 4 h.

For `N[C@@]1(c2ccccc2Cl)CCCCC1=O` [(R)-(−)-norketamine], the Ki (NMDA receptor) is listed as 13 µM.

In the case of `N[C@]1(c2ccccc2Cl)CCCCC1=O` [(S)-(+)-norketamine], the Ki (NMDA receptor) is listed as 1.7 µM.
